Test results reported in article PMC3026848 (Bioorganic & medicinal chemistry, 2010).
Read-outs that look alike come from different tables or passages of the source.

Assays:
melanoma = melanoma chemotherapy; cited from earlier work
[1] = high dosages; cited from earlier work
[2] = cited from earlier work
[3] = tested on: NCI-H226 (human lung cancer); experiment: Screening against NCI-H226; assay type: cell-based; settings: unpublished data from this laboratory
[4] = tested on: PC-3 (human prostate cancer); experiment: Screening against PC-3; assay type: cell-based; settings: unpublished data from this laboratory
[5] = tested on: UO-31 (human renal cancer); experiment: Screening against UO-31; assay type: cell-based; settings: unpublished data from this laboratory
A431(human skin cancer) = experiment: Screening against A431; assay type: cell-based; settings: unpublished data from this laboratory
UACC-62 cells = experiment: Cell cycle distribution by flow cytometry; assay type: cell-based, human; settings: UACC-62, 6 days, 0.01 µM to 1 µM, PI staining

In the case of `CN(C)/N=N/c1[nH]cnc1C(N)=O` [Dacarbazine, dacarbazine], the response rate (melanoma) is listed as 10% to 20.

For `O=C(Nc1ccc(Cl)cc1)NS(=O)(=O)c1ccc2c(c1)CCC2` [Sulofenur, reference compound], the “adverse effects in clinical trials” value [1] is listed as “hemolytic anemia and methemoglobinemia were observed” and the protein binding [2] is listed as “greater than 99%”.

In the case of `CC(=O)N[C@@H](CSC(=O)Nc1ccc(Cl)cc1)C(=O)O` [NACC, N-Acetyl-S-(p-chlorophenylcarbamoyl)cysteine], the “activity against NCI-H226” value [3] is given as “Poor activities”, the “activity against PC-3” value [4] is given as “Poor activities” and the protein binding ([2]; reported earlier) is given as 84%. The “activity against UO-31” value [5] was “Poor activities”, the “activity against A431” value (A431(human skin cancer)) was “Poor activities” and the “effect on cell cycle distribution” value (UACC-62 cells) was “no change in cell cycle distribution was observed”.
